# Earlier results in publication PMC9851200, “Multiparameter phenotypic screening for endogenous TFEB and TFE3 translocation identifies novel chemical series modulating lysosome function” (Autophagy, 2022).
# Experiments:
# Design in all cases: method as in original PKIS2 published data
# [1] = target: kinases (KINOMEscan panel) (Homo sapiens, UniProt O94921); conditions: Published KINOMEscan; ref original PKIS2 published data; cited from earlier work
# [2] = target: T1, kinases (KINOMEscan panel) (Homo sapiens, UniProt P41743); conditions: PRKCI; Published KINOMEscan; ref original PKIS2 published data; cited from earlier work
# T1 sequence (P41743 1-596): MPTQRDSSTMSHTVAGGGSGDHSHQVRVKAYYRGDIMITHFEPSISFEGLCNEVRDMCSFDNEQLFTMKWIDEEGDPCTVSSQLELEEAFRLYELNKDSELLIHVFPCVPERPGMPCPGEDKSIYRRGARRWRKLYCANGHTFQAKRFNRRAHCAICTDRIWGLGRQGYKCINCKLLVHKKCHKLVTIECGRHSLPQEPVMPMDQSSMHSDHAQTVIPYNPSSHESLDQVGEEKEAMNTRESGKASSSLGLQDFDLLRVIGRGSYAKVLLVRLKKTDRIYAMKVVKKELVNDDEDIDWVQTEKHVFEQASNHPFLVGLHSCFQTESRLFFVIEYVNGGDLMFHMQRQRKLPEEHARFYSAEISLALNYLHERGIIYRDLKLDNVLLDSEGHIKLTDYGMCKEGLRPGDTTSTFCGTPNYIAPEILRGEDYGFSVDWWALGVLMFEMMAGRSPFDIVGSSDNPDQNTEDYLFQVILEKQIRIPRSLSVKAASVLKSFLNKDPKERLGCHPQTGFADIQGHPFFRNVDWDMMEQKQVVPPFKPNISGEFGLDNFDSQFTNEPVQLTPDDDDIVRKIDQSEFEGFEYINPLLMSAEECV
# [3] = target: T2, kinases (KINOMEscan panel) (Homo sapiens, UniProt O00329); conditions: Published KINOMEscan; ref original PKIS2 published data; cited from earlier work
# T2 sequence (O00329 1-1044): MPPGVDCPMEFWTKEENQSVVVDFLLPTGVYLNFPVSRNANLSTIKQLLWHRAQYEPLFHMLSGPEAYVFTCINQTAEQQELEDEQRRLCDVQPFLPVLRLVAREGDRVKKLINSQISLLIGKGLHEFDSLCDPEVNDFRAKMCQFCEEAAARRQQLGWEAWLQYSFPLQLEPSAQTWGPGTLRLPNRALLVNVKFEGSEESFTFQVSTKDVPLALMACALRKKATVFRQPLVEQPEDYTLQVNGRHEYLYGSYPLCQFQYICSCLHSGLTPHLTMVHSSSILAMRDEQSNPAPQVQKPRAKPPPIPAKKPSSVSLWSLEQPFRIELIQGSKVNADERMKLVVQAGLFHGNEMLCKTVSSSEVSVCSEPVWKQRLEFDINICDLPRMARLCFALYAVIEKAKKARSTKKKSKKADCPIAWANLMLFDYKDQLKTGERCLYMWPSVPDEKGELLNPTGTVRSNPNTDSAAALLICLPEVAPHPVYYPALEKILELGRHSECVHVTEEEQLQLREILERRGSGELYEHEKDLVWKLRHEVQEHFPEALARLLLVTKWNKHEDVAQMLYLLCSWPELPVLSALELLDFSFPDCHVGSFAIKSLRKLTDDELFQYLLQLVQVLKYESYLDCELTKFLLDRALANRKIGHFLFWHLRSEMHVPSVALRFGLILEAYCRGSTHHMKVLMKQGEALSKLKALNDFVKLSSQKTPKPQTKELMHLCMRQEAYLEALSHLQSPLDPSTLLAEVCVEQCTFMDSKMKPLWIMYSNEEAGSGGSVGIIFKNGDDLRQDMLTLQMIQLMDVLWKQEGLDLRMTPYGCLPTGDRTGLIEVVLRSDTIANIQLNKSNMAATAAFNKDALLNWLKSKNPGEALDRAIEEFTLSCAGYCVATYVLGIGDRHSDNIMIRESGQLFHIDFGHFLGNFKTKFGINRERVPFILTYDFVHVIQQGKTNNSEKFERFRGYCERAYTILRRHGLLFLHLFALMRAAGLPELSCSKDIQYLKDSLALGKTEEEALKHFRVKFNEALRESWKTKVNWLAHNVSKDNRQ
# [4] = target: T3, kinases (KINOMEscan panel) (Homo sapiens, UniProt Q9Y2U5); conditions: MAP3K2; Published KINOMEscan; ref original PKIS2 published data; cited from earlier work
# T3 sequence (Q9Y2U5 1-619): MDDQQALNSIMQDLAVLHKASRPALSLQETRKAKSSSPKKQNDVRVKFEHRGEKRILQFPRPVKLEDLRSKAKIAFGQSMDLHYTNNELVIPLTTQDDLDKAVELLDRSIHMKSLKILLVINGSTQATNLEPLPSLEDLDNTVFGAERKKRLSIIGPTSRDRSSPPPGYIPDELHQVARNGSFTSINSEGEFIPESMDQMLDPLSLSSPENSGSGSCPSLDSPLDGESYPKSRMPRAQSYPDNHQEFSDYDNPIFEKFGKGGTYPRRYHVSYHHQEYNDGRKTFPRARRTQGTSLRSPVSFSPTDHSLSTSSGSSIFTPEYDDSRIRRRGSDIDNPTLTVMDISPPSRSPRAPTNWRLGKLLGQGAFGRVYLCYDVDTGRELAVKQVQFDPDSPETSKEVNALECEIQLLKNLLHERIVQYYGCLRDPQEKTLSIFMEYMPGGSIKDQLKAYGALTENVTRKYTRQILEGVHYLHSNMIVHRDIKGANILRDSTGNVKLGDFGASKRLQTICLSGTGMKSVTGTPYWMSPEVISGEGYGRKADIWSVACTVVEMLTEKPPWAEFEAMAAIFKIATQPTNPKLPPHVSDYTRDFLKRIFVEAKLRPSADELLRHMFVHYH
# Chain of kinases (KINOMEscan panel) (Homo sapiens, UniProt O94921) (O94921 whole entry): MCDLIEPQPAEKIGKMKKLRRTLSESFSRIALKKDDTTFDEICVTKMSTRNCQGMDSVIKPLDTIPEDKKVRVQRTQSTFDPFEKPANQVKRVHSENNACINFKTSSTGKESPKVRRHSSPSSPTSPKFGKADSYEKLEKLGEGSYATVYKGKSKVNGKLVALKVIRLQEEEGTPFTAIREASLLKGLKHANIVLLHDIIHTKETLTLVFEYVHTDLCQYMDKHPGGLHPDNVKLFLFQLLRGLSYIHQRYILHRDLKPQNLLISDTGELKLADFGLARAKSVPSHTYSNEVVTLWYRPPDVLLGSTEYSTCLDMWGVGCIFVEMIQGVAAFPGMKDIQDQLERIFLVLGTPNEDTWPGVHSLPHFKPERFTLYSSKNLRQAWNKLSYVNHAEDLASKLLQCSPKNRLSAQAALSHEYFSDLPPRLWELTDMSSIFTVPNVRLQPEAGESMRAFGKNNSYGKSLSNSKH
structure (smiles),measurement,setting,value
Cc1cccc(-c2nc(Nc3ccncc3)c3ccccc3n2)n1 [NK215],KINOMEscan CDK14,[1],0
same,KINOMEscan PRKCI,[2],32
same,KINOMEscan PIK3CD,[3],0
same,KINOMEscan MAP3K2,[4],0
